Measurements as given in ChEMBL document CHEMBL3046635, “Synthesis and Herbicidal Activity of New Pyrazole-4-carboxamide Derivatives” (J Pestic Sci, 2004).
Active and inactive are the calls of the source.

Legend:
Oryza sativa = assay: Phytotoxicity against Oryza sativa cv. Koshihikari (rice) at 500 g a.i/ha measured after 14 days; assay type: organism-based; conditions: in vivo, 336 h
Ammannia multiflora [1] = assay: Pre-emergence herbicidal activity against Ammannia multiflora at 500 g a.i/ha measured after 14 days; assay type: functional, organism-based
Cyperus difformis [2] = assay: Pre-emergence herbicidal activity against Cyperus difformis at 500 g a.i/ha measured after 14 days; assay type: functional, organism-based
Pontederia vaginalis [3] = assay: Post-emergence herbicidal activity against Monochoria vaginalis assessed as bleaching of stem/leaf parts; assay type: functional, organism-based; note: test concentration or dose not given here
[4] = test system: Schoenoplectiella juncoides; assay: Post-emergence herbicidal activity against Schoenoplectiella juncoides assessed as bleaching of stem/leaf parts; assay type: functional, organism-based; note: test concentration or dose not given here
Lindernia procumbens [5] = assay: Pre-emergence herbicidal activity against Lindernia procumbens at 500 g a.i/ha measured after 14 days; assay type: functional, organism-based
Lindernia procumbens [6] = assay: Pre-emergence herbicidal activity against Lindernia procumbens assessed as bleaching of stem/leaf parts; assay type: functional, organism-based
Echinochloa oryzicola [7] = assay: Post-emergence herbicidal activity against Echinochloa oryzicola assessed as bleaching of stem/leaf parts; assay type: functional, organism-based; note: test concentration or dose not given here
Rotala indica [8] = assay: Pre-emergence herbicidal activity against Rotala indica at 500 g a.i/ha measured after 14 days; assay type: functional, organism-based
Elatine triandra [9] = assay: Pre-emergence herbicidal activity against Elatine triandra at 500 g a.i/ha measured after 14 days; assay type: functional, organism-based
[10] = test system: Schoenoplectiella juncoides; assay: Pre-emergence herbicidal activity against Schoenoplectiella juncoides at 500 g a.i/ha measured after 14 days; assay type: functional, organism-based
Ammannia multiflora [11] = assay: Post-emergence herbicidal activity against Ammannia multiflora assessed as bleaching of stem/leaf parts; assay type: functional, organism-based; note: test concentration or dose not given here
Eleocharis acicularis [12] = assay: Pre-emergence herbicidal activity against Eleocharis acicularis assessed as bleaching of stem/leaf parts; assay type: functional, organism-based
Eleocharis acicularis [13] = assay: Pre-emergence herbicidal activity against Eleocharis acicularis at 500 g a.i/ha measured after 14 days; assay type: functional, organism-based
Lindernia procumbens [14] = assay: Post-emergence herbicidal activity against Lindernia procumbens assessed as bleaching of stem/leaf parts; assay type: functional, organism-based; note: test concentration or dose not given here
Pontederia vaginalis [15] = assay: Pre-emergence herbicidal activity against Monochoria vaginalis assessed as bleaching of stem/leaf parts; assay type: functional, organism-based
Rotala indica [16] = assay: Post-emergence herbicidal activity against Rotala indica assessed as bleaching of stem/leaf parts; assay type: functional, organism-based; note: test concentration or dose not given here
Pontederia vaginalis [17] = assay: Pre-emergence herbicidal activity against Monochoria vaginalis at 500 g a.i/ha measured after 14 days; assay type: functional, organism-based
Cyperus difformis [18] = assay: Pre-emergence herbicidal activity against Cyperus difformis assessed as bleaching of stem/leaf parts; assay type: functional, organism-based
Echinochloa oryzicola [19] = assay: Pre-emergence herbicidal activity against Echinochloa oryzicola assessed as bleaching of stem/leaf parts; assay type: functional, organism-based
Rotala indica [20] = assay: Pre-emergence herbicidal activity against Rotala indica assessed as bleaching of stem/leaf parts; assay type: functional, organism-based
Eleocharis acicularis [21] = assay: Post-emergence herbicidal activity against Eleocharis acicularis assessed as bleaching of stem/leaf parts; assay type: functional, organism-based; note: test concentration or dose not given here
Elatine triandra [22] = assay: Post-emergence herbicidal activity against Elatine triandra assessed as bleaching of stem/leaf parts; assay type: functional, organism-based; note: test concentration or dose not given here
Echinochloa oryzicola [23] = assay: Pre-emergence herbicidal activity against Echinochloa oryzicola at 500 g a.i/ha measured after 14 days; assay type: functional, organism-based
Elatine triandra [24] = assay: Pre-emergence herbicidal activity against Elatine triandra assessed as bleaching of stem/leaf parts; assay type: functional, organism-based
Ammannia multiflora [25] = assay: Pre-emergence herbicidal activity against Ammannia multiflora assessed as bleaching of stem/leaf parts; assay type: functional, organism-based
[26] = test system: Schoenoplectiella juncoides; assay: Pre-emergence herbicidal activity against Schoenoplectiella juncoides assessed as bleaching of stem/leaf parts; assay type: functional, organism-based
Cyperus difformis [27] = assay: Post-emergence herbicidal activity against Cyperus difformis assessed as bleaching of stem/leaf parts; assay type: functional, organism-based; note: test concentration or dose not given here

Cn1cc(C(=O)NCc2cccc(Cl)c2)c(OCc2cccc(C(F)(F)F)c2)n1
Activity (Oryza sativa): Non-toxic
Activity (Ammannia multiflora [1]): inactive
Activity (Cyperus difformis [2]): inactive
Activity (Pontederia vaginalis [3]): Active
Activity [4]: Active
Activity (Lindernia procumbens [5]): inactive
Activity (Lindernia procumbens [6]): Active
Activity (Echinochloa oryzicola [7]): Active
Activity (Rotala indica [8]): inactive
Activity (Elatine triandra [9]): inactive
Activity [10]: inactive
Activity (Ammannia multiflora [11]): Active
Activity (Eleocharis acicularis [12]): Active
Activity (Eleocharis acicularis [13]): inactive
Activity (Lindernia procumbens [14]): Active
Activity (Pontederia vaginalis [15]): Active
Activity (Rotala indica [16]): Active
Activity (Pontederia vaginalis [17]): inactive
Activity (Cyperus difformis [18]): Active
Activity (Echinochloa oryzicola [19]): Active
Activity (Rotala indica [20]): Active
Activity (Eleocharis acicularis [21]): Active
Activity (Elatine triandra [22]): Active
Activity (Echinochloa oryzicola [23]): inactive
Activity (Elatine triandra [24]): Active
Activity (Ammannia multiflora [25]): Active
Activity [26]: Active
Activity (Cyperus difformis [27]): Active

CCCn1cc(C(=O)NOCC)c(OCc2cccc(C(F)(F)F)c2)n1
Activity (Oryza sativa): Non-toxic
Activity (Ammannia multiflora [1]): inactive
Activity (Cyperus difformis [2]): inactive
Activity (Pontederia vaginalis [3]): Active
Activity [4]: Active
Activity (Lindernia procumbens [5]): inactive
Activity (Lindernia procumbens [6]): Active
Activity (Echinochloa oryzicola [7]): Active
Activity (Rotala indica [8]): inactive
Activity (Elatine triandra [9]): inactive
Activity [10]: inactive
Activity (Ammannia multiflora [11]): Active
Activity (Eleocharis acicularis [12]): Active
Activity (Eleocharis acicularis [13]): inactive
Activity (Lindernia procumbens [14]): Active
Activity (Pontederia vaginalis [15]): Active
Activity (Rotala indica [16]): Active
Activity (Pontederia vaginalis [17]): inactive
Activity (Cyperus difformis [18]): Active
Activity (Echinochloa oryzicola [19]): Active
Activity (Rotala indica [20]): Active
Activity (Eleocharis acicularis [21]): Active
Activity (Elatine triandra [22]): Active
Activity (Echinochloa oryzicola [23]): inactive
Activity (Elatine triandra [24]): Active
Activity (Ammannia multiflora [25]): Active
Activity [26]: Active
Activity (Cyperus difformis [27]): Active

Cn1cc(C(=O)Nc2ccc(S(C)(=O)=O)cc2)c(OCc2cccc(C(F)(F)F)c2)n1
Activity (Oryza sativa): Non-toxic
Activity (Ammannia multiflora [1]): inactive
Activity (Cyperus difformis [2]): inactive
Activity (Pontederia vaginalis [3]): Active
Activity [4]: Active
Activity (Lindernia procumbens [5]): inactive
Activity (Lindernia procumbens [6]): Active
Activity (Echinochloa oryzicola [7]): Active
Activity (Rotala indica [8]): inactive
Activity (Elatine triandra [9]): inactive
Activity [10]: inactive
Activity (Ammannia multiflora [11]): Active
Activity (Eleocharis acicularis [12]): Active
Activity (Lindernia procumbens [14]): Active
Activity (Pontederia vaginalis [15]): Active
Activity (Rotala indica [16]): Active
Activity (Pontederia vaginalis [17]): inactive
Activity (Cyperus difformis [18]): Active
Activity (Echinochloa oryzicola [19]): Active
Activity (Rotala indica [20]): Active
Activity (Eleocharis acicularis [21]): Active
Activity (Elatine triandra [22]): Active
Activity (Echinochloa oryzicola [23]): inactive
Activity (Elatine triandra [24]): Active
Activity (Ammannia multiflora [25]): Active
Activity [26]: Active
Activity (Cyperus difformis [27]): Active

Cn1cc(C(=O)Nc2ccc(C(F)(F)F)cc2)c(OCc2cccc(C(F)(F)F)c2)n1
Activity (Oryza sativa): Non-toxic
Activity (Ammannia multiflora [1]): Active
Activity (Cyperus difformis [2]): inactive
Activity (Pontederia vaginalis [3]): Active
Activity [4]: Active
Activity (Lindernia procumbens [5]): Active
Activity (Lindernia procumbens [6]): Active
Activity (Echinochloa oryzicola [7]): Active
Activity (Rotala indica [8]): Active
Activity (Elatine triandra [9]): Active
Activity [10]: inactive
Activity (Ammannia multiflora [11]): Active
Activity (Eleocharis acicularis [12]): Active
Activity (Eleocharis acicularis [13]): Active
Activity (Lindernia procumbens [14]): Active
Activity (Pontederia vaginalis [15]): Active
Activity (Rotala indica [16]): Active
Activity (Pontederia vaginalis [17]): Active
Activity (Cyperus difformis [18]): Active
Activity (Echinochloa oryzicola [19]): Active
Activity (Rotala indica [20]): Active
Activity (Eleocharis acicularis [21]): Active
Activity (Elatine triandra [22]): Active
Activity (Echinochloa oryzicola [23]): inactive
Activity (Elatine triandra [24]): Active
Activity (Ammannia multiflora [25]): Active
Activity [26]: Active
Activity (Cyperus difformis [27]): Active

Cn1cc(C(=O)Nc2ccc(C#N)cc2)c(OCc2cccc(C(F)(F)F)c2)n1
Activity (Oryza sativa): Non-toxic
Activity (Ammannia multiflora [1]): Active
Activity (Cyperus difformis [2]): inactive
Activity (Pontederia vaginalis [3]): Active
Activity [4]: Active
Activity (Lindernia procumbens [5]): Active
Activity (Lindernia procumbens [6]): Active
Activity (Echinochloa oryzicola [7]): Active
Activity (Rotala indica [8]): Active
Activity (Elatine triandra [9]): Active
Activity [10]: inactive
Activity (Ammannia multiflora [11]): Active
Activity (Eleocharis acicularis [12]): Active
Activity (Eleocharis acicularis [13]): inactive
Activity (Lindernia procumbens [14]): Active
Activity (Pontederia vaginalis [15]): Active
Activity (Rotala indica [16]): Active
Activity (Pontederia vaginalis [17]): inactive
Activity (Cyperus difformis [18]): Active
Activity (Echinochloa oryzicola [19]): Active
Activity (Rotala indica [20]): Active
Activity (Eleocharis acicularis [21]): Active
Activity (Elatine triandra [22]): Active
Activity (Echinochloa oryzicola [23]): inactive
Activity (Elatine triandra [24]): Active
Activity (Ammannia multiflora [25]): Active
Activity [26]: Active
Activity (Cyperus difformis [27]): Active

Cn1cc(C(=O)N2CCCC2)c(OCc2cccc(C(F)(F)F)c2)n1
Activity (Oryza sativa): Non-toxic
Activity (Ammannia multiflora [1]): inactive
Activity (Cyperus difformis [2]): inactive
Activity (Pontederia vaginalis [3]): Active
Activity [4]: Active
Activity (Lindernia procumbens [5]): inactive
Activity (Lindernia procumbens [6]): Active
Activity (Echinochloa oryzicola [7]): Active
Activity (Rotala indica [8]): inactive
Activity (Elatine triandra [9]): inactive
Activity [10]: inactive
Activity (Ammannia multiflora [11]): Active
Activity (Eleocharis acicularis [12]): Active
Activity (Eleocharis acicularis [13]): inactive
Activity (Lindernia procumbens [14]): Active
Activity (Pontederia vaginalis [15]): Active
Activity (Rotala indica [16]): Active
Activity (Pontederia vaginalis [17]): inactive
Activity (Cyperus difformis [18]): Active
Activity (Echinochloa oryzicola [19]): Active
Activity (Rotala indica [20]): Active
Activity (Eleocharis acicularis [21]): Active
Activity (Elatine triandra [22]): Active
Activity (Echinochloa oryzicola [23]): inactive
Activity (Elatine triandra [24]): Active
Activity (Ammannia multiflora [25]): Active
Activity [26]: Active
Activity (Cyperus difformis [27]): Active

C=CCNC(=O)c1cn(C)nc1OCc1cccc(C(F)(F)F)c1
Activity (Oryza sativa): Non-toxic
Activity (Ammannia multiflora [1]): inactive
Activity (Cyperus difformis [2]): inactive
Activity (Pontederia vaginalis [3]): Active
Activity [4]: Active
Activity (Lindernia procumbens [5]): inactive
Activity (Lindernia procumbens [6]): Active
Activity (Echinochloa oryzicola [7]): Active
Activity (Rotala indica [8]): inactive
Activity (Elatine triandra [9]): inactive
Activity [10]: inactive
Activity (Ammannia multiflora [11]): Active
Activity (Eleocharis acicularis [12]): Active
Activity (Eleocharis acicularis [13]): inactive
Activity (Lindernia procumbens [14]): Active
Activity (Pontederia vaginalis [15]): Active
Activity (Rotala indica [16]): Active
Activity (Pontederia vaginalis [17]): inactive
Activity (Cyperus difformis [18]): Active
Activity (Echinochloa oryzicola [19]): Active
Activity (Rotala indica [20]): Active
Activity (Eleocharis acicularis [21]): Active
Activity (Elatine triandra [22]): Active
Activity (Echinochloa oryzicola [23]): inactive
Activity (Elatine triandra [24]): Active
Activity (Ammannia multiflora [25]): Active
Activity [26]: Active
Activity (Cyperus difformis [27]): Active

Cn1cc(C(=O)NOc2ccc(C(C)(C)C)cc2)c(OCc2cccc(C(F)(F)F)c2)n1
Activity (Oryza sativa): Non-toxic
Activity (Ammannia multiflora [1]): inactive
Activity (Cyperus difformis [2]): inactive
Activity (Pontederia vaginalis [3]): Active
Activity [4]: Active
Activity (Lindernia procumbens [5]): inactive
Activity (Lindernia procumbens [6]): Active
Activity (Echinochloa oryzicola [7]): Active
Activity (Rotala indica [8]): inactive
Activity (Elatine triandra [9]): inactive
Activity [10]: inactive
Activity (Ammannia multiflora [11]): Active
Activity (Eleocharis acicularis [12]): Active
Activity (Eleocharis acicularis [13]): inactive
Activity (Lindernia procumbens [14]): Active
Activity (Pontederia vaginalis [15]): Active
Activity (Rotala indica [16]): Active
Activity (Pontederia vaginalis [17]): inactive
Activity (Cyperus difformis [18]): Active
Activity (Echinochloa oryzicola [19]): Active
Activity (Rotala indica [20]): Active
Activity (Eleocharis acicularis [21]): Active
Activity (Elatine triandra [22]): Active
Activity (Echinochloa oryzicola [23]): inactive
Activity (Elatine triandra [24]): Active
Activity (Ammannia multiflora [25]): Active
Activity [26]: Active
Activity (Cyperus difformis [27]): Active

Cn1cc(C(=O)Nc2cccc(Cl)c2)c(OCc2cccc(C(F)(F)F)c2)n1
Activity (Oryza sativa): Non-toxic
Activity (Ammannia multiflora [1]): Active
Activity (Cyperus difformis [2]): inactive
Activity (Pontederia vaginalis [3]): Active
Activity [4]: Active
Activity (Lindernia procumbens [5]): Active
Activity (Lindernia procumbens [6]): Active
Activity (Echinochloa oryzicola [7]): Active
Activity (Rotala indica [8]): Active
Activity (Elatine triandra [9]): Active
Activity [10]: Active
Activity (Ammannia multiflora [11]): Active
Activity (Eleocharis acicularis [12]): Active
Activity (Lindernia procumbens [14]): Active
Activity (Pontederia vaginalis [15]): Active
Activity (Rotala indica [16]): Active
Activity (Pontederia vaginalis [17]): inactive
Activity (Cyperus difformis [18]): Active
Activity (Echinochloa oryzicola [19]): Active
Activity (Rotala indica [20]): Active
Activity (Eleocharis acicularis [21]): Active
Activity (Elatine triandra [22]): Active
Activity (Echinochloa oryzicola [23]): inactive
Activity (Elatine triandra [24]): Active
Activity (Ammannia multiflora [25]): Active
Activity [26]: Active
Activity (Cyperus difformis [27]): Active
